# Test results reported in patent US20220324865A1 (Bayer Aktiengesellschaft, priority 2018, published 2022).
# Structures can show the parent of a compound that is named as a salt.
# Target: T1, human EP3 receptor (Homo sapiens, UniProt P43115)
# T1 construct: expressed in transfected cells; host or cells: CHO K1 (Chinese Hamster Ovary), stably co-transfected with Galpha16 and mitochondrial clytin
# T1 sequence (P43115 1-390): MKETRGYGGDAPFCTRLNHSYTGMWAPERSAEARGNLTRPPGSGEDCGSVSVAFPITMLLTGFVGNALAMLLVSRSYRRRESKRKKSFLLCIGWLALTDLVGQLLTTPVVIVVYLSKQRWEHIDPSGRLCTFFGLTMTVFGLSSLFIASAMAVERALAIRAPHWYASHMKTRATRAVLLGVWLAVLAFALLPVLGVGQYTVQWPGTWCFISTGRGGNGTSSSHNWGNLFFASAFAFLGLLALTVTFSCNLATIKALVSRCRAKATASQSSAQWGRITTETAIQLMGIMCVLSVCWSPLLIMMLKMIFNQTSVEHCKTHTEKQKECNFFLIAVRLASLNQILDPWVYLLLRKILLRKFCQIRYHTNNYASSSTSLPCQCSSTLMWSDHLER
# Assay: Cellular in vitro assay for determining EP3 receptor activity (human EP3 cell line, sulprostone-stimulated calcium luminescence)
# Assay type: cell-based
# Conditions: CHO cells expressing human EP3 and mitochondrial Clytin; antagonist mode, sulprostone at EC50; read-out: EP3 CHO mtCLY ANTAG IC50
# Procedure, shortened: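 CHO K1 cells stably expressing human EP3 with Gα16 and mitochondrial Clytin, loaded overnight with coelenterazine. Compounds added 10 min before sulprostone at its EC50; antagonism read immediately as reduced calcium-driven luminescence, quadruplicate points.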
row,SMILES,IC50
1,"Cc1cc(-c2cn3nc(C(=O)N[C@@H](c4ccc(F)cc4)C(C)(C)O)c(C4CC4)c3c(=O)[nH]2)ccc1Cl [Example 1-173, 6-(4-Chloro-3-methylphenyl)-3-cyclopropyl-N-[(1S)-1-(4-fluorophenyl)-2-hydroxy-2-methylpropyl]-4-oxo-4,5-dihydropyrazolo[1,5-a]pyrazine-2-carboxamide]",0.73 nM
2,"O=C(NC(CCO)c1ccc(F)cc1)c1cc2c(=O)[nH]c(-c3ccc4cccnc4c3)cn2n1 (stereo not drawn) [Example 1-62, N-[1-(4-Fluorophenyl)-3-hydroxpropyl]-4-oxo-6-(7-quinolyl)-5H-pyrazolo[1,5-a]pyrazine-2-carboxamide]",3.6 nM
3,"Cc1cccc2ncc(-c3cn4nc(C(=O)NCC5CNC(=O)O5)c(C(C)C)c4c(=O)[nH]3)cc12 (stereo not drawn) [Example 4-42, 3-Isopropyl-6-(5-methyl-3-quinolyl)-4-oxo-N-[(2-oxooxazolidin-5-yl)methyl]-5H-pyrazolo[1,5-a]pyrazine-2-carboxamide]",4.45 nM
4,"Cc1cccc2ncc(-c3cn4nc(C(=O)NC(C)c5ccc(Cl)cc5Cl)c(C(C)C)c4c(=O)[nH]3)cc12 (stereo not drawn) [Example 4-82, N-[1-(2,4-Dichlorophenyl)ethyl]-3-isopropyl-6-(5-methyl-3-quinolyl)-4-oxo-5H-pyrazolo[1,5-a]pyrazine-2-carboxamide]",6.25 nM
5,"Cc1c(C(=O)NC(C)(C)c2cc(Cl)cc(Cl)c2)nn2c(C)c(-c3ccc4ccccc4c3)[nH]c(=O)c12 [Example 3-30, N-[2-(3,5-Dichlorophenyl)propan-2-yl]-3,7-dimethyl-6-(naphthalen-2-yl)-4-oxo-4,5-dihydropyrazolo[1,5-a]pyrazine-2-carboxamide]",9.4 nM
6,"Cc1ccc(C(C)NC(=O)c2cc3c(=O)[nH]c(-c4ccc5ccccc5c4)cn3n2)cc1 (stereo not drawn) [Example 2-44, N-[1-(4-Methylphenyl)ethyl]-6-(2-naphthyl)-4-oxo-4,5-dihydropyrazolo[1,5-a]pyrazine-2-carboxamide]",1.3 nM
7,"CN1CC(NC(=O)c2cc3c(=O)[nH]c(-c4ccc5ccccc5c4)cn3n2)(c2ccc(F)cc2)C1 [Example 1-49, N-[3-(4-Fluorophenyl)-1-methylazetidin-3-yl]-6-(naphthalen-2-yl)-4-oxo-4,5-dihydropyrazolo-[1,5-a]pyrazine-2-carboxamide formic acid salt]",7.65 nM
8,"Cc1ccc(-c2cn3nc(C(=O)N[C@H](C)C(C)C)c(C(C)C)c3c(=O)[nH]2)cc1C [Example 1-141, 6-(3,4-Dimethylphenyl)-N-[(2R)-3-methylbutan-2-yl]-4-oxo-3-(propan-2-yl)-4,5-dihydropyrazolo-[1,5-a]pyrazine-2-carboxamide]",1.7 nM
9,"Cc1ccc(-c2cn3nc(C(=O)N[C@H](C)C(C)C)c(C4CC4)c3c(=O)[nH]2)cc1C [Example 1-143, 3-Cyclopropyl-6-(3,4-dimethylphenyl)-N-[(2R)-3-methylbutan-2-yl]-4-oxo-4,5-dihydropyrazolo-[1,5-a]pyrazine-2-carboxamide]",1.5 nM
10,"Cc1cccc2ncc(-c3cn4nc(C(=O)NC(C)c5cccc(Br)c5)c(C(C)C)c4c(=O)[nH]3)cc12 (stereo not drawn) [Example 4-62, N-[1-(3-Bromophenyl)ethyl]-3-isopropyl-6-(5-methyl-3-quinolyl)-4-oxo-5H-pyrazolo[1,5-a]pyrazine-2-carboxamide]",2.05 nM
11,"Cc1cccc2ncc(-c3cn4nc(C(=O)NCc5ccc(CN6CCCC6)cc5)c(C(C)C)c4c(=O)[nH]3)cc12 [Example 4-48, 6-(5-Methylquinolin-3-yl)-4-oxo-3-(propan-2-yl)-N-({4-[(pyrrolidin-1-yl)methyl]phenyl}methyl)-4,5-dihydropyrazolo[1,5-a]pyrazine-2-carboxamide]",4.75 nM
12,"Cc1ccc(-c2cn3nc(C(=O)NC4(c5ccc(F)cc5)CN(C)C4)c(C4CC4)c3c(=O)[nH]2)cc1C [Example 1-36, 3-Cyclopropyl-6-(3,4-dimethylphenyl)-N-[3-(4-fluorophenyl)-1-methylazetidin-3-yl]-4-oxo-4,5-dihydropyrazolo[1,5-a]pyrazine-2-carboxamide]",2.19 nM
13,"CCn1cc(Cl)c(CNC(=O)c2nn3cc(-c4cnc5cccc(C)c5c4)[nH]c(=O)c3c2C(C)C)n1 [Example 4-23, N-[(4-Chloro-1-ethyl-1H-pyrazol-3-yl)methyl]-6-(5-methylquinolin-3-yl)-4-oxo-3-(propan-2-yl)-4,5-dihydropyrazolo[1,5-a]pyrazine-2-carboxamide]",1.01 nM
14,"COc1ccc(C2(NC(=O)c3cc4c(=O)[nH]c(-c5ccc6ccccc6c5)cn4n3)CN(C(=O)OC(C)(C)C)C2)cc1 [Example 1-57, tert.-Butyl 3-(4-methoxyphenyl)-3-({[6-(naphthalen-2-yl)-4-oxo-4,5-dihydropyrazolo[1,5-a]pyrazin-2-yl]carbonyl}amino)azetidine-1-carboxylate]",4.9 nM
15,"CN1CC(NC(=O)c2nn3cc(-c4ccc(Cl)c(F)c4)[nH]c(=O)c3c2C2CC2)(c2ccc(F)cc2)C1 [Example 1-169, 6-(4-Chloro-3-fluorophenyl)-3-cyclopropyl-N-[3-(4-fluorophenyl)-1-methylazetidin-3-yl]-4-oxo-4,5-dihydropyrazolo[1,5-a]pyrazine-2-carboxamide]",3.35 nM

# The next lines start with the values.
row,IC50,SMILES
1,2.58 nM,CC(C)(O)[C@@H](NC(=O)c1nn2cc(-c3cc(F)c(Cl)c(F)c3)[nH]c(=O)c2c1C1CC1)c1ccc(F)cc1 [6-475]
2,10 nM,"Cc1cc(-c2cn3nc(C(=O)NC(c4ccc(F)cc4)C4(O)CC4)c(C4CC4)c3c(=O)[nH]2)ccc1F (single isomer, unassigned) [6-652]"
3,2 nM,CC(C)c1c(C(=O)N[C@H](CCO)c2ccc(F)cc2)nn2cc(-c3ccc(Cl)cc3)[nH]c(=O)c12 [6-670]
4,5.2 nM,O=C(N[C@@H](c1ccc(F)cc1)C(F)(F)CO)c1nn2cc(-c3cccc(Cl)c3)[nH]c(=O)c2c1C1CC1 [6-678]
5,3.2 nM,Cc1cc(-c2cn3nc(C(=O)N[C@H](C)C(C)(C)C)c(C4CC4)c3c(=O)[nH]2)ccc1Cl [6-318]
6,2.17 nM,O=C(NC(CCn1cncn1)c1ccccc1)c1cc2c(=O)[nH]c(-c3ccc4c(c3)OCCO4)cn2n1 (stereo not drawn) [6-47]
7,8.3 nM,O=C(N[C@H]1c2ccccc2C[C@@H]1O)c1cc2c(=O)[nH]c(-c3ccc4ccccc4c3)cn2n1 [6-73]
8,0.97 nM,"Cc1cc(-c2cn3nc(C(=O)N[C@H]4CCN(C5CC5)C4)c(C4CC4)c3c(=O)[nH]2)ccc1Cl (single isomer, unassigned) [6-324]"
9,5.45 nM,CN(C)CC(NC(=O)c1nn2cc(-c3ccc4ccccc4c3)[nH]c(=O)c2c1C(F)(F)F)c1ccc(F)cc1 (racemic) [6-506]
10,32.5 nM,"Cc1ccc(-c2cn3nc(C(=O)NCC(O)C(F)(F)F)c(C)c3c(=O)[nH]2)cc1F (single isomer, unassigned) [6-411]"
11,0.95 nM,Cc1ccc(-c2cn3nc(C(=O)NCC(O)C(F)(F)F)c(C(F)(F)F)c3c(=O)[nH]2)cc1C (racemic) [6-115]
12,1.1 nM,Cc1ccc(-c2cn3nc(C(=O)N[C@@H](c4ccc(F)cc4)[C@@H](O)C(F)(F)F)c(C4CC4)c3c(=O)[nH]2)cc1Cl [6-273]
13,3.05 nM,Cc1ccc(-c2cn3nc(C(=O)NCC(O)C(F)F)c(C4CC4)c3c(=O)[nH]2)cc1F (racemic) [6-369]
14,4.55 nM,O=C(NCC(O)(C(F)(F)F)C(F)(F)F)c1nn2cc(-c3ccc(Cl)c(F)c3)[nH]c(=O)c2c1C1CC1 [6-88]
15,3.15 nM,"O=C(NC1CCN(CC(F)F)C1)c1nn2cc(-c3ccc4ccccc4c3)[nH]c(=O)c2c1C(F)(F)F (single isomer, unassigned) [6-520]"
16,0.78 nM,"Cc1ccc(-c2cn3nc(C(=O)NC(c4ccc(F)cc4)C4(O)CC4)c(C4CC4)c3c(=O)[nH]2)cc1F (single isomer, unassigned) [6-382]"
17,1.09 nM,Cc1ccc(-c2cn3nc(C(=O)N[C@@H](C)C4CC4)c(C(F)(F)F)c3c(=O)[nH]2)cc1C [6-119]
18,1.3 nM,Cc1ccc(-c2cn3nc(C(=O)N[C@@H](c4ccccc4)C(C)(C)O)c(C4CC4)c3c(=O)[nH]2)cc1F [6-385]
19,0.85 nM,Cc1ccc(-c2cn3nc(C(=O)N[C@@H](CO)C(F)(F)F)c(C4CC4)c3c(=O)[nH]2)cc1F [6-393]
20,1.22 nM,Cc1ccc(-c2cn3nc(C(=O)N[C@@H](c4ccc(F)cc4)[C@H](O)C(F)(F)F)c(C4CC4)c3c(=O)[nH]2)cc1Cl [6-272]
21,6.55 nM,Cc1ccc(-c2cn3nc(C(=O)N[C@@H](c4ccc(F)cc4)C(C)(C)O)cc3c(=O)[nH]2)cc1F [6-644]
22,1.5 nM,O=C(N[C@@H](c1ccc(F)cc1)C(F)(F)CO)c1nn2cc(-c3ccc(Cl)cc3)[nH]c(=O)c2c1C1CC1 [6-675]
23,0.7 nM,O=C(NC(c1ccc(F)cc1)C1(O)CC1)c1nn2cc(-c3ccc(Cl)c(Cl)c3)[nH]c(=O)c2c1C1CC1 (racemic) [6-422]
24,1.55 nM,Cc1ccc(-c2cn3nc(C(=O)NCC(O)C(F)(F)F)c(C(F)(F)F)c3c(=O)[nH]2)cc1Cl (racemic) [6-158]
25,0.57 nM,COc1cc(-c2cn3nc(C(=O)N[C@@H](C)C4CC4)c(C4CC4)c3c(=O)[nH]2)ccc1Cl [6-481]
26,4.7 nM,"CCN1CCC(NC(=O)c2nn3cc(-c4ccc(C)c(F)c4)[nH]c(=O)c3c2C2CC2)(C(F)(F)F)C1 (single isomer, unassigned) [6-405]"
27,1.8 nM,CN1CC(NC(=O)c2nn3cc(-c4cc(F)c(Cl)c(F)c4)[nH]c(=O)c3c2C2CC2)(c2ccc(F)cc2)C1 [6-471]
